Test results from BindingDB's records for patent US11185100 (MARS, INCORPORATED, 2021).

Key:
[1] = target: T1, G-protein coupled receptors family 3 profile domain-containing protein (Felis catus, UniProt A0ABI7Z2I4); assay: Activation of T1R1/T1R3 Receptor by Nucleotide Derivatives (alanine)
Experimental: The concentration of alanine is 20 mM.
Target sequence in this assay (A0ABI7Z2I4 1-770): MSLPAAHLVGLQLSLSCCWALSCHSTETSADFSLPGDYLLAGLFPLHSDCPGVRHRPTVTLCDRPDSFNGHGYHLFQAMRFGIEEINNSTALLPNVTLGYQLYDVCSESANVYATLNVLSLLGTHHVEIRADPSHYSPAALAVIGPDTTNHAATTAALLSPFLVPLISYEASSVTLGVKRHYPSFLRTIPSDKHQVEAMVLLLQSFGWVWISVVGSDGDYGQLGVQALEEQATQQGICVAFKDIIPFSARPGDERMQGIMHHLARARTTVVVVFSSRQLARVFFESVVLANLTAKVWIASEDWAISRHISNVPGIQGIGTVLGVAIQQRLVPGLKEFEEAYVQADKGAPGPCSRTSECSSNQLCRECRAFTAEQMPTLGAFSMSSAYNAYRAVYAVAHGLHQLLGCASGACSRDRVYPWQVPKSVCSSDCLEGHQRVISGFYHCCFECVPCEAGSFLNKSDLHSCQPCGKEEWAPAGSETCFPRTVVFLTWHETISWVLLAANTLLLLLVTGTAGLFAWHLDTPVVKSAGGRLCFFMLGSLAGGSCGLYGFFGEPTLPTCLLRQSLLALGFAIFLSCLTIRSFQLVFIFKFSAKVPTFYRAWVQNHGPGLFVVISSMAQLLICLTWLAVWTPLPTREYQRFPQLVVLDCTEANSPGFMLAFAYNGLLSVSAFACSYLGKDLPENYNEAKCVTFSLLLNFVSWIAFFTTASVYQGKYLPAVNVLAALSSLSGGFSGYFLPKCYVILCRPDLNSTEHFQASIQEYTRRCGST

[2] = target: T1, G-protein coupled receptors family 3 profile domain-containing protein; assay: Activation of T1R1/T1R3 Receptor by Nucleotide Derivatives
Source text: HEK293 cells that stably express T1R3 and inducibly express T1R1 were exposed to nucleotide derivatives alone to activate the umami receptor. Activation of the T1R1/T1R3 receptor was detected by a change in intracellular calcium levels using a calcium sensitive fluorescent dye. Cells that express T1R3 but not T1R1 were used as a control. A FLIPR Tetra or a FlexStation 3 was used for data capture.

| Structure (SMILES) | EC50 [1] [µM] | EC50 [2] [µM] |
| --- | --- | --- |
| CC1(O)[C@@](C)(COP(O)(O)=S)O[C@@](C)(n2cnc3c(N)ncnc32)[C@@]1(C)O (stereo partly drawn) [US11185100, TABLE 7.9] | 60 | – |
| CC1(O)[C@](C)(n2cnc3c(N)ncnc32)O[C@](C)(COP(O)(O)=S)[C@]1(C)O (stereo partly drawn) [US11185100, TABLE 6.6] | 60 | – |
| Nc1ncnc2c1ncn2[C@@H]1O[C@H](COP(=O)(O)O)[C@@H](OP(=O)(O)O)[C@H]1O [US11185100, TABLE 7.1] | – | > 30 |
